From ChEMBL document CHEMBL3507680, “University of Dundee, Gates Library screen for HepG2 cell viability”

Experiment: Human HepG2 cell viability assay in 384 well format
Type: toxicity, cell-based
Set-up: dose 125 nL, time 70.5 hour; concentration not given beside the values
Conditions: HepG2 cells, read-out: Inhibition

Compound | cytotoxicity at 70.5 h [%]
Cc1ccc(S(=O)(=O)c2ncccc2CN2CCN(C)CC2)cc1 | -11.2
COCCNC(=O)CCN1C(=O)CC2(CCCC2)C1=O | -15.7
O=c1c(CN2CCSCC2)coc(O)c1CN1CCCC1 | 29.9
COCCn1cc(CC(=O)Nc2nc3c(s2)CCC3)c2ccccc21 | -6.21
CN1C(=O)COc2ccc(NC(=O)CCc3nc4cccnc4[nH]3)cc21 | -9.73
Cc1nn(-c2ccc(C(=O)O)cc2)c2c1C(c1cccs1)SCC(=O)N2 (stereo not given) | 0.275
Cc1nn(-c2ccc(C(=O)O)cc2)c2c1C(C(C)C)SCC(=O)N2 (stereo not given) | -2.14
Cc1cc(Br)c2c(c1)C1(CC(=O)Nc3c1cnn3C(C)C)C(=O)N2 (stereo not given) | -24.3
Cc1ccc(S(=O)(=O)c2ncccc2CN2CCN(CCO)CC2)cc1 | -30.6
O=C(CCc1nc2ccccc2[nH]1)Nc1ccc2c(c1)OCC(=O)N2 | -11.6
CC(C)n1nc(O)c2c1NC(=O)CSC2c1cnn(C)c1 (stereo not given) | -19.6
O=C(CCc1nc2cc(Br)cnc2[nH]1)NCCN1CCOCC1 | -10.2
O=C(CCc1nc2cccnc2[nH]1)Nc1ccc2c(c1)OCC(=O)N2 | -10.5
Cn1c(CN2CCOCC2)cc(=O)c(O)c1CN1CCOCC1 | -12.3
Cc1cc(C(=O)Nc2n[nH]c(C3CC3)n2)c2c(C)noc2n1 | 29
O=C(Nc1nnn[nH]1)c1cc(-c2ccc(Br)s2)n[nH]1 | -3.48
CN(C)CCCNC(=O)C1CC(=O)N(c2n[nH]c3cccc(F)c23)C1 (stereo not given) | -26.2
COc1ccc2c(c1)c(C(=O)Nc1n[nH]c(C(C)C)n1)cn2C(C)C | 40.7
Cn1c(CN2CCOCC2)cc(=O)c(O)c1CN1CCCC1 | -6.51
O=C(CCc1nnc2ccccn2c1=O)NCc1cccnc1 | -14.8
Cc1cc(CN[C@@H](C)C(N)=O)c(C)s1 | -7.91
CC(=O)Nc1ccc(-c2cn(CCn3c(C)cc(C)nc3=O)nn2)cc1 | -6.08
CCc1ccccc1OC1CN(C(=O)CN(C)Cc2cccnc2)C1 | 14

Compound | cytotoxicity at 70.5 h [%]
CN1C[C@@H](NC(=O)c2cc(F)cc(F)c2)C[C@H]1C(=O)NCc1ncc[nH]1 | -16.2
COCCN1CCC2(CCC1=O)CN(C1CCOCC1)CCN2C (stereo not given) | -10.7
Cc1ccc2nc(CNCCCN3CCCC3)cc(O)c2c1 | -9.2
Cc1nn(CCNC(C)Cn2cncn2)c(C)c1Cl (stereo not given) | 7.1
Cc1ccc(CN2CCCC(c3nnc(CN4CCCC4)n3C)C2)s1 (stereo not given) | -0.483
Cc1ncsc1CN1C[C@H](NC(=O)C2CCOCC2)[C@@H](C(C)C)C1 | -14.2
CCCN(Cc1nccn1C)C(=O)c1cc(C)nc(C)n1 | -9.67
Cc1cccc(-c2nc(CN3CCOCS3(=O)=O)c(C)o2)c1 | -6.34
CC(C)c1nc(CN(C)C(=O)CNS(=O)(=O)c2cccs2)cs1 | -6.67
Cc1cnccc1CN(C)C(=O)c1cccc(CCC(C)(C)O)c1 | -1.91
Cc1cc(N(C)CCN(C)C)n2nc(C)cc2n1 | -1.46
C=C(C)COc1ccccc1NC(=O)N1CCOCC1CO (stereo not given) | 7.4
Cc1cc(F)ccc1CN1CCCC(O)(CN2CCCC2)C1 (stereo not given) | -1.52
COc1ccc(CC2(CO)CCN(c3cc(C(N)=O)ccn3)CC2)cc1 | -2.15
COc1cc(F)ccc1C(C(=O)O)N(C)CCN1CCCC1 (stereo not given) | 12.1
COCc1cc(NCCCSc2nnc(C)s2)ncn1 | -6.65
COc1cc(N2CCC(c3nccn3Cc3ccccn3)CC2)ncn1 | -4.99
O=C1OCCN1Cc1cc(C(F)(F)F)ccc1F | -7.38
CNc1cc(C)nc(N2C[C@@H](C(=O)O)[C@H](C3CC3)C2)n1 | -1.21
Cc1c[nH]c(CN(C)C(C(=O)O)c2c(F)cccc2OC(C)C)n1 (stereo not given) | 1.64
CCN1CCCC1CNC(=O)c1cc(COc2cccc(F)c2)[nH]n1 (stereo not given) | 0.339
CCCc1nc(C)cc(N2CCC3(CCC(=O)N(CC(N)=O)C3)CC2)n1 | -8.54
C=C(C)COc1ccccc1NC(=O)NC1CCOCC1 | 2.28

Compound | cytotoxicity at 70.5 h [%]
Cc1ccccc1CN1CC[C@@]2(O)CCN(C(=O)C3CCC3)C[C@H]2C1 | 2.03
CN(Cc1ccccc1)C(=O)CCN1C[C@H](C2CC2)[C@@H](N(C)C)C1 | -10.8
c1ccc2c(c1)CC(CNCc1ccncc1)(N1CCCCC1)C2 | -4.17
CC(C)C(C)N(Cc1ccccn1)Cc1ccco1 (stereo not given) | -22.8
Cc1nc(CN2CCCC(Cn3cncn3)C2)nc2ccccc12 (stereo not given) | 19
Cc1cc(C)n(CC2CCCN2C(=O)c2cn[nH]c2C)n1 (stereo not given) | -1.06
Cc1nc(C)n(C2CCCN(C(=O)c3ccc4nccn4c3)C2)n1 (stereo not given) | 22.7
Cc1nc(C)n(C2CCCN(C(=O)c3ccc4[nH]nnc4c3)C2)n1 (stereo not given) | 0.449
Cc1cc(C)cc(CNC(c2ccccc2)c2nccn2C)c1 (stereo not given) | 1.26
CCOc1ncccc1C(=O)N1CCCC1Cn1nc(C)cc1C (stereo not given) | 5.47
Cc1cc(C)n(CC2CCCN2C(=O)c2cccc(C#N)c2)n1 (stereo not given) | -2.63
Cc1nc(C)n(C2CCCN(C(=O)c3ccnc(N(C)C)c3)C2)n1 (stereo not given) | -3.3
COc1cc(C(=O)N2CCCC2c2noc(C(C)C)n2)on1 (stereo not given) | -2.66
Cc1cnn(CC2CCCN2c2ncnc3ccsc23)c1 (stereo not given) | 5.5
c1ccc(Cc2nnc(CN3CCc4cncnc4C3)o2)cc1 | 1.25
CC(=O)N(Cc1ncc(C)o1)C1CCN(Cc2nccn2C)C1 (stereo not given) | 2.28
CCc1noc(C)c1C(=O)NCC(c1ccc(C)cc1)N(C)C (stereo not given) | -3.99
CC(=O)N(Cc1ncc(C(C)C)o1)C1CCN(CCC#N)C1 (stereo not given) | -7
COc1ccccc1CC(=O)N1CCC(NCc2ccccn2)CC1 | 21
C1CC(c2nnc(CN3CCCC3c3noc(C4CC4)n3)o2)C1 (stereo not given) | -7.54
Cc1ncc2c(n1)CN(Cc1nc(Cc3ccccc3)no1)CC2 | -8.87
CCc1ncc2c(n1)CN(Cc1nnc(Cc3ccccc3)o1)CC2 | -1.62
c1cnc(-c2nc(CN3CCN(CC4CC4)CC3)cs2)nc1 | -5.7

Compound | cytotoxicity at 70.5 h [%]
O=C(c1ccc(Cn2ccccc2=O)o1)N1CCSCC1 | -8.03
Cc1ccc(-c2nc(C(=O)N3CCOCC3)cs2)c(C)c1 | -12.3
O=C(Nc1ccc(CCN2CCOCC2)cc1)C1CCC1 | -3.21
NC(=O)C1CCN(CCc2ccc(NC(=O)C3CC3)cc2)CC1 | -3.12
O=C(NCc1csc(Br)c1)N1CCOCC1 | -4.76
O=C(CCCNc1ncccn1)Nc1cc(C(F)(F)F)c[nH]c1=O | -2.93
CCOC(=O)c1sc2ccsc2c1CNC(=O)CCOC | 16.3
CCc1nc2n(n1)CC(NCc1nc(-c3ccccn3)no1)CC2 (stereo not given) | -3.45
CCOC(=O)c1sc2ccsc2c1CNC(=O)C(C)OC (stereo not given) | 3.36
CC(C)(C)OC(=O)N1CCN(C(=O)CCn2cccn2)CC1 | -4.56
CCc1nnc(CN2CCc3cnc(C)nc3C2)o1 | -3.58
CCc1ccccc1OCC(=O)N1CCOCC1c1ncon1 (stereo not given) | 28.4
CN(C)CC1CN(Cc2nnc(C(C)(C)C)o2)CCO1 (stereo not given) | 11.9
O=C(CCCN1CCOC1=O)Nc1cnn(-c2ccccc2Cl)c1 | -5.24
CCN1CCN(CCCNC(=O)NC(C)c2nncn2C)CC1 (stereo not given) | 2.39
CC(C)c1nc2c(n1C)CCN(Cc1nc(-c3cccnc3)no1)C2 | -11.9
COc1c(CNCCNC(=O)c2ccccc2F)c(C)nn1C | -15.6
O=C(CCN1CCOC1=O)Nc1cnn(-c2ccccc2Cl)c1 | -7.73
COc1c(CNC2CCCOc3ccccc32)c(C(C)C)nn1C (stereo not given) | -4.69
Cc1nc(C)c(C(=O)NCCNC(=O)Cc2ccc(F)cc2)s1 | 10.7
CC(NC(=O)NCCCN1CCCC1)c1nncn1C (stereo not given) | -7.79
NC(=O)C1CCN(C(=O)c2ccn(-c3cccc(F)c3)n2)C1 (stereo not given) | -19.8
NC(=O)C1CCN(C(=O)c2ccn(-c3cccc(Cl)c3)n2)C1 (stereo not given) | -17.8

Compound | cytotoxicity at 70.5 h [%]
CC(C)c1nc2c(n1C)CCN(Cc1nc(-c3ccoc3)no1)C2 | -4.46
CCOc1cc(C)nc(N2CCN(C(=O)C(C)NC(C)=O)CC2)n1 (stereo not given) | -1.89
CN(C)C(=O)c1cccc(CN2CCN(CC(O)C(C)(C)C)CC2)c1 (stereo not given) | -11.5
Cc1ccoc1C(=O)N1CCCC(c2cc(C(F)(F)F)[nH]n2)C1 (stereo not given) | -8.09
Cc1ccc(C(=O)NS(=O)(=O)c2cc(F)ccc2F)c(=O)[nH]1 | -13.1
Cc1ccc(C)c(S(=O)(=O)NC(=O)c2ccc(C)[nH]c2=O)c1 | -4.64
Cc1ccc(C(=O)NS(=O)(=O)c2cc(Br)ccc2C)c(=O)[nH]1 | -7.4
O=C(CCc1cccc(Cl)c1Cl)N1CCOCC1c1ncon1 (stereo not given) | -1.88
COc1cc(CNCC(O)c2ccc(F)cc2F)cc2c1OCO2 (stereo not given) | 4.59
CCS(=O)(=O)c1ccccc1N1CCC(NC2CCCC2)CC1 | -2.15
COCCCN(C)C1CCCN(Cc2noc(C3CC3)n2)C1 (stereo not given) | 11.8
CCOCCN1CCN(CCCS(C)(=O)=O)CC1C (stereo not given) | 11.8
Cc1cc(CN(C)CC(c2cccs2)N2CCOCC2)on1 (stereo not given) | -7.4
Cc1nc(CN2CCCC(N(C)CC3CCCC3)C2)no1 (stereo not given) | 0.0887
CN(Cc1ccccc1C#N)C1CCN(CCc2ccccn2)CC1 | -3.57
C=C(Cl)CN(C)C1CCN(CCc2ccccn2)CC1 | -6.31
N#Cc1cccc(CN2CCCC2Cn2cccn2)c1 (stereo not given) | -1.88
Cc1noc(C)c1CN(C)CC(c1cccs1)N1CCOCC1 (stereo not given) | -4.33
COc1ccc(CCNC(=O)CN2CCCC2c2noc(C)n2)cc1 (stereo not given) | -1.93
Cc1ncc(CN2CCCC2)c2cc(C(=O)c3ccc(Br)cc3)oc12 | -14.3
COc1c(CNC2CCCOc3ccc(F)cc32)c(C(C)C)nn1C (stereo not given) | -4.87
COc1cc(CNCC(O)c2ccc(C)cc2)cc2c1OCO2 (stereo not given) | -2.01
COc1cc(CNCC(O)c2cccc(F)c2)cc2c1OCO2 (stereo not given) | 1.4
